Test results: ChEMBL document CHEMBL4622912, “Isolation and biological activity of agrostophillinol from kaffir lime (Citrus hystrix) leaves” (Bioorg Med Chem Lett, 2020)
≈ marks a conversion by molar mass, not a printed value. Calls of active or inactive are those of the source. No cut-off for these calls is given here.

What was measured:
K562 = test: Antiproliferative activity against human K562 cells assessed as reduction in cell viability incubated for 2 days by MTT assay; type: functional, cell-based; details: K562, 48 h
[1] = Cytotoxicity against mouse RAW264.7 cells assessed as cell viability at 2.7 ug/ml incubated for 2 days by MTT assay relative to control; type: cell-based; details: read-out: Activity
[2] = Antioxidant activity assessed as ferric reducing ability; type: functional
[3] = Antioxidant activity assessed as DPPH radical scavenging activity; type: functional; details: dose or concentration not given here
[4] = Cytotoxicity against mouse RAW264.7 cells assessed as reduction in cell viability incubated for 2 days by MTT assay; type: cell-based
EOL1 = test: Antiproliferative activity against human EOL1 cells incubated for 2 days by MTT assay; type: functional, cell-based; details: EOL1, 48 h
PBMC = test: Cytotoxicity against human PBMC assessed as reduction in cell viability incubated for 2 days by MTT assay; type: cell-based; details: 48 h
KG-1a = test: Antiproliferative activity against human KG1a cells assessed as reduction in cell viability incubated for 2 days by MTT assay; type: functional, cell-based; details: 48 h
RAW264.7 [5] = test: Antiinflammatory activity against mouse RAW264.7 cells assessed as reduction in TNFalpha level at 2.7 ug/ml; type: functional, cell-based
RAW264.7 [6] = test: Antiinflammatory activity against mouse RAW264.7 cells assessed as reduction in IL6 level at 2.7 ug/ml; type: functional, cell-based
[7] = Antioxidant activity assessed as trolox equivalent antioxidant capacity; type: functional
HL-60 = test: Antiproliferative activity against human HL60 cells incubated for 2 days by MTT assay; type: functional, cell-based; details: HL-60, 48 h
RAW264.7 [8] = test: Antiinflammatory activity against mouse RAW264.7 cells assessed as reduction in TNFalpha level; type: functional, cell-based
RAW264.7 [9] = test: Antiinflammatory activity against mouse RAW264.7 cells assessed as reduction in IL6 level; type: functional, cell-based

C=C(CC[C@@H](C)[C@H]1CC[C@@]2(C)[C@@H]3CC[C@H]4C(C)(C)[C@@H](O)CC[C@]4(C)C3=CC[C@]12C)C(C)C gave an IC50 (K562) of over 100 µg/mL, a viability at 48 h, 2.7 ug/ml [1] of 80% and an Activity [2] of 0.2 µM. For the same compound, the inhibition [3] was 8.6%, the IC20 at 48 h [4] was 2.7 µg/mL (≈ 6.13 µM) and the IC50 (EOL1) was 36.3 µg/mL (≈ 82.4 µM). The IC50 (PBMC) was over 100 µg/mL, the IC50 (KG-1a) was over 100 µg/mL and the inhibition (RAW264.7 [5]) was “Active”. For the same compound, the inhibition (RAW264.7 [6]) was “Active”, the Activity [7] was 0.1 µM and the IC50 (HL-60) was 53.4 µg/mL (≈ 121 µM).
With C=C(C)[C@@H]1CC[C@]2(C)CC[C@]3(C)[C@H](CC[C@@H]4[C@@]5(C)CC[C@H](O)C(C)(C)[C@@H]5CC[C@]43C)[C@@H]12 [LUPEOL] the IC50 (K562) was 82.8 µg/mL (≈ 194 µM).
CC[C@]1(O)C[C@H]2CN(CCc3c([nH]c4ccccc34)[C@@](C(=O)OC)(c3cc4c(cc3OC)N(C=O)[C@H]3[C@@](O)(C(=O)OC)[C@H](OC(C)=O)[C@]5(CC)C=CCN6CC[C@]43[C@@H]65)C2)C1 [VINCRISTINE] showed an IC50 (HL-60) of 0.008 µg/mL (≈ 0.0097 µM).
For O=C1O[C@H]([C@@H](O)CO)C(O)=C1O, the Activity [2] was 23.7 µM and the Activity [7] was 1.7 µM.
In the case of C[C@@H]1C[C@H]2[C@@H]3CCC4=CC(=O)C=C[C@]4(C)[C@@]3(F)[C@@H](O)C[C@]2(C)[C@@]1(O)C(=O)CO, the inhibition (RAW264.7 [8]) is reported as “Dose-dependent effect” and the inhibition (RAW264.7 [9]) is reported as “Dose-dependent effect”.
C/C(=C\CO)CCC[C@H](C)CCC[C@H](C)CCCC(C)C [TRANS-PHYTOL] showed an IC50 (K562) of 45.8 µg/mL (≈ 154 µM).
